Test results: PubChem BioAssay (NCI)
“And” between values parts separate entries of the source, which are not always exact repeats. Equal values may be shown once.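 Five concentrations, 48 hours, 96-well plates. The concentration for 50% growth inhibition is given as GI50. TGI: total growth inhibition.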

Tested on: MDA-MB-468 breast
Test: growth of human tumour cells (NCI), 48 h

Row | Structure (SMILES) | GI50 | TGI
1 | CN(C)CCCNc1nc2ccccc2c2c(=O)c3cc(F)ccc3sc12 | 0.675 µM | 2.16 µM
2 | CCCCc1ccc(NS(=O)(=O)c2cc3c4c(c2)CCN4C(=O)CC3)cc1 | 4.5 µM | 94.2 µM
3 | COc1ccc(/C=C/C(=O)c2c(O)c(C)c(O)c3c2OC2=CC(O)=C(C(C)=O)C(=O)[C@]23C)cc1 | 1.35 µM | 5.01 µM
4 | Oc1ccc(OCCOc2ccc(O)cc2)cc1 | 32.7 µM | > 100 µM
5 | CO[C@@H](C)Cn1c(=O)n(C)c2cnc3ccc(-c4cncc(C(C)(C)O)c4)cc3c21 | 0.132 µM and 0.0601 µM | 0.661 µM and 0.472 µM
6 | Cn1cc(-c2csc(-c3c[nH]c4ccc(F)cc34)n2)c2cccnc21 | 1.41 µM | 5.24 µM
7 | Fc1ccc(-c2cc3nc(C(Cl)Cl)nc(-c4cccs4)n3n2)cc1 | 0.219 µM | 0.666 µM
8 | COc1ccc([C@H]2[C@H](O)C(=O)N2c2cc(OC)c(OC)c(OC)c2)cc1 | < 0.01 µM | > 100 µM
9 | COc1cc(Nc2ncc3c(C)nc(-c4cccc(C(F)(F)F)c4)n3n2)cc(OC)c1OC | 2.81 µM | 5.98 µM
10 | NCCCNc1nc2ccccc2c2c(=O)c3cccc(F)c3sc12 | 1.62 µM | 3.24 µM
11 | Cc1ccc(NC(=O)c2ccc(CN3CC[C@H](N(C)C)C3)c(C(F)(F)F)c2)cc1Nc1nccc(-c2cncnc2)n1 | 5.05 µM and 7.37 µM | 18.4 µM and > 10 µM
12 | COc1cc(C=C2c3ccccc3C(=O)c3ccccc32)ccc1OCCCCOc1cc2c(cc1OC)C(=O)N1CCCC1C=N2 (stereo unspecified) | 0.287 µM | 1.19 µM
13 | COc1cc(/C=C/[N+](=O)[O-])c([N+](=O)[O-])cc1OC | 1.02 µM | 2.3 µM
14 | N#Cc1cc(-c2ccnc(Nc3ccc(NC(=O)CCl)cc3)n2)ccc1N1CCCC1 | 3.4 µM | 7.13 µM
15 | COc1cc(C2CC(c3ccc(SC)cc3)=NN2C(C)=O)cc(OC)c1OC (stereo unspecified) | 3.71 µM | 26.2 µM
16 | O=C1C(=O)/C(=C/c2ccccc2)CCCCCC/C1=C/c1ccccc1 | 3.62 µM | 17.7 µM
17 | COc1cc(C(=O)/C=C/c2c(-c3cccs3)nc3sccn23)cc(OC)c1OC | 0.93 µM | 2.89 µM
18 | COc1cc(/C=C/c2cc(/C=C/c3ccc(O)c(OC)c3)n(C(N)=O)n2)ccc1O | 0.298 µM | 1.52 µM

Row | Structure (SMILES) | GI50 | TGI
19 | O=C(c1ccc(Oc2ccccc2)cc1Cl)c1c[nH]c2ncnc(N[C@@H]3CC[C@@H](CO)OC3)c12 | 1.01 µM | 3.73 µM
20 | O=[N+]([O-])c1cc([N+](=O)[O-])c(NN=C(c2ccc(O)cc2)c2ccc(O)cc2)cc1Cl | 0.247 µM | 0.55 µM
21 | O=C1NC(=O)/C(=C/c2ccc3ncccc3c2)S1 | 9.28 µM | > 25 µM
22 | Cn1c([N+](=O)[O-])cnc1/C=C1\Oc2ccc(Br)cc2C1=O | 1.59 µM | 4.6 µM
23 | CCN(Cc1cc(F)cc(F)c1)c1ccc(CO)c(Cl)c1 | 0.0187 µM | 0.0505 µM
24 | COC1=C(C)C(=O)N2[C@@H]1[C@H](c1ccccc1)OC21C=CC(=O)C=C1 | 2.54 µM | 9.24 µM
25 | CCOC(=O)c1cc(C(=O)c2cc(OC)cc(OC)c2)n2nc(C)ccc12 | 0.297 µM | > 100 µM
26 | COc1cc2c(Oc3ccc4[nH]c(C)cc4c3F)ncnc2cc1OCCCN1CCCC1 | 1.32 µM | 3.06 µM
27 | O=C1/C(=C/c2ccccc2[N+](=O)[O-])Oc2ccc(O)cc21 | 1.81 µM | 3.85 µM
28 | CC(c1ccccc1)N1C(=O)CSC1=S (stereo unspecified) | 0.303 µM | > 100 µM
29 | CO[C@H]1/C=C/[C@@](C)(O)/C=C/C(=O)O[C@H](C)[C@@H](C)CC/C=C/1C | 8.45 µM | 31 µM
30 | Cc1ccc(N(CC(=O)Nc2ccc(S(=O)(=O)NC3CCN(C)CC3)cc2)S(=O)(=O)c2ccc(Cl)cc2)cc1 | 1.91 µM | 4 µM
31 | COc1cc(Nc2cc(O)c3c(=O)cc(-c4ccccc4)oc3c2)cc(OC)c1 | 0.279 µM | –
32 | COc1ccc(-c2cc(C(=O)N3N=C(c4ccc(N)cc4)CC3c3ccc(Cl)cc3)c3ccccc3n2)cc1 (stereo unspecified) | 2.95 µM | > 100 µM
33 | O=C(/C=C/c1c(-c2ccccc2)[nH]c2ccccc12)S(=O)(=O)c1ccccc1 | 1.98 µM | 8.75 µM
34 | CCCCN1C=CCN(CCCC)C1 | 18.6 µM | 61.3 µM
35 | COc1cc(/C=C/c2cc(/C=C/c3ccc(O)c(OC)c3)n(C(=O)Cc3ccccc3)n2)ccc1O | 1.17 µM | 4.58 µM
36 | CCC(=O)OCC1OC(n2cnc3c(=S)nc(N)[nH]c32)C(OC(=O)CC)C1OC(=O)CC (stereo unspecified) | 1.18 µM | 7.45 µM
